Assay results reported in PubChem BioAssay (NCI).
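Assay format: 96-well plates, 48-hour exposure. TGI: total growth inhibition.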

Columns and labels:
Test in all cases: growth of human tumour cells (NCI), 48 h
[1] = tested on: HCT-116 colon
[2] = tested on: SK-MEL-28 melanoma
[3] = tested on: HOP-92 NSCLC
[4] = tested on: UACC-257 melanoma
[5] = tested on: SNB-75 CNS
[6] = tested on: OVCAR-5 ovarian
[7] = tested on: ACHN renal
[8] = tested on: RXF 393 renal
[9] = tested on: SNB-19 CNS
[10] = tested on: SK-MEL-5 melanoma

SMILES	TGI [1] [µM]	TGI [2] [µM]	TGI [3] [µM]	TGI [4] [µM]	TGI [5] [µM]	TGI [6] [µM]	TGI [7] [µM]	TGI [8] [µM]	TGI [9] [µM]	TGI [10] [µM]
COC(=O)C1[C@H](C(=O)OC)C1(Br)CBr (stereo not given in full)	> 100	> 100	> 100	> 100	> 100	> 100	> 100	> 100	> 100	> 100
O=S(=O)(O)c1ccc(Nc2ccnc3cc(Cl)ccc23)cc1	> 100	> 100	> 100	> 100	> 100	> 100	> 100	> 100	> 100	> 100
CN/N=C(\C(=O)Nc1ccc([N+](=O)[O-])cc1[N+](=O)[O-])C1NC(=O)NC1=O (stereo not given)	> 100	> 100	> 100	> 100	> 100	> 100	> 100	> 100	> 100	> 100
Cc1nn(-c2ccccn2)c2c1C(SC#N)=C(C=O)CC2	37.1	45.9	34.5	17.8	30.1	20.7	29.8	17.6	47.8	28.2
C[C@@H]1OCC(O)C([C@H]2OC(c3ccccc3)=N[C@H]2CO)O1 (stereo not given in full)	> 100	> 100	> 100	> 100	> 100	> 100	> 100	> 100	> 100	> 100
CCOC(=O)C1=C(C)N(c2ccc(C)cc2)C2(O)C=CC(=O)C3=C(O)c4ccccc4C(=O)C312 (stereo not given)	> 100	60.2	45.4	57.9	68.6	> 100	50.1	62.1	80.2	42.1
CC(=O)Nc1ccc(/C=C(\NC(=O)c2ccccc2)C(=O)NNS(=O)(=O)c2ccc(C)cc2)cc1	> 100	> 100	> 100	> 100	> 100	> 100	> 100	> 100	> 100	> 100
Oc1ccc2ccccc2c1OCc1nnc(CCCCCCCCc2nnc(COc3c(O)ccc4ccccc34)o2)o1	54.5	> 100	> 100	> 100	> 100	> 100	> 100	> 100	> 100	> 100
c1ccc(CNc2ncnc3n[nH]nc23)cc1	> 100	> 100	> 100	> 100	> 100	> 100	> 100	> 100	> 100	> 100
C=CCn1c(=O)c2ccccc2[n+]2c(-c3cccc([N+](=O)[O-])c3)csc12	> 100	> 100	> 100	> 100	69.9	> 100	> 100	> 100	> 100	36.5
C/C(=C\CNc1nc(Cl)nc2nc[nH]c12)CO	> 100	> 100	> 100	> 100	> 100	> 100	> 100	> 100	> 100	> 100
O=C(NCc1ccccc1)c1c(O)c2ccccc2[nH]c1=O	> 100	> 100	> 100	> 100	> 100	> 100	> 100	> 100	> 100	> 100
O=C(NCCCCNCCCNC(=O)OCc1ccccc1)OCc1ccccc1	70	40	87.3	41.3	89.4	> 100	> 100	66.6	> 100	32.5
O=C1OC(c2ccccc2)=N/C1=C/N1CCCC1C(=O)O (stereo not given)	> 100	> 100	> 100	> 100	> 100	> 100	> 100	> 100	> 100	> 100
c1ccc(COc2cccc3cccnc23)cc1	> 100	> 100	> 100	> 100	> 100	> 100	> 100	> 100	> 100	> 100
CCCCCCCCC[n+]1cccc(C2C(C(=O)OCC)=C(C)NC(C)=C2C(=O)OCC)c1	30.5	7.28	6.52	7.73	11.6	24.6	28.5	5.94	11.2	3.8
O=C1C(=Cc2ccccc2[N+](=O)[O-])N=C(c2ccccc2)N1n1c(-c2ccccc2)nc2ccccc2c1=O	33.7	> 100	49.3	90.7	> 100	> 100	> 100	56.2	> 100	> 100

SMILES	TGI [1] [µM]	TGI [2] [µM]	TGI [3] [µM]	TGI [4] [µM]	TGI [5] [µM]	TGI [6] [µM]	TGI [7] [µM]	TGI [8] [µM]	TGI [9] [µM]	TGI [10] [µM]
C=C1C(=O)O[C@H]2C3C(=C(C)CC[C@@H]12)C(=O)[C@@H]1OC31C (stereo not given in full)	2.7	5.52	10.7	5.98	6.57	23.3	8.07	2.99	29.5	6.11
COc1ccc(NC(=S)NNC(=O)c2cc(-c3ccccc3)nc3ccccc23)cc1	27	43.3	31.9	46.9	70.3	58.8	87.3	44.6	> 100	25.6
Nc1ccc(-c2nc3ccccc3s2)cc1	35.2	33	31.9	49.7	58.1	36.5	31.8	33.5	61.5	50.1
Cc1ccc([N+](=O)[O-])cc1NC(=O)C(=O)C1CCC2=C(Sc3ccccc3N2)C1=O (stereo not given)	> 100	> 100	> 100	> 100	> 100	> 100	> 100	> 100	> 100	> 100
O=C(NCc1cccnc1)C(=O)NCc1cccnc1	> 100	> 100	> 100	> 100	> 100	> 100	> 100	> 100	> 100	> 100
COc1ccc(C2NC(=O)Nc3c2c(=O)oc2c3ccc3ccccc32)cc1 (stereo not given)	> 100	> 100	> 100	> 100	75.8	> 100	> 100	> 100	> 100	> 100
Cc1ccc(S(=O)(=O)N2CCN(CCO)CCN(S(=O)(=O)c3ccc(C)cc3)CCN(CCO)CC2)cc1	29.1	30.2	66	25.1	92.4	> 100	90.9	82.1	> 100	27.3
COc1ccc(C2=NNC(=O)c3ccccc3N2c2nc(-c3cccs3)nc3ccc(Br)cc23)cc1	> 100	> 100	> 100	> 100	> 100	> 100	> 100	> 100	> 100	> 100
C/C(=C\c1ccccc1)C(=O)NCc1ccc(C(=O)NCCc2c[nH]c3ccccc23)cc1	> 100	> 100	> 100	78.2	> 100	> 100	> 100	> 100	> 100	> 100
COC(=O)C[C@H](CCSC)NC(=O)C[C@H](CCSC)NC(=O)C[C@H](CCSC)NC(=O)OC(C)(C)C	> 100	> 100	36.9	> 100	29	> 100	> 100	33.6	51.5	> 100
c1ccc2c(c1)c1c3n2-c2cc(on2)C3CCC1 (stereo not given)	> 100	> 100	> 100	> 100	> 100	> 100	> 100	> 100	> 100	> 100
COC(=O)C(C(=O)OC)C1CC(=O)c2c(Br)sc(Br)c21 (stereo not given)	30.9	34.2	35	76.8	75	28.9	26.6	84.4	47.3	28.3
O=c1oc2ccccc2c(O)c1Cc1cccc(Cc2c(O)c3ccccc3oc2=O)c1	> 100	> 100	> 100	> 100	> 100	> 100	> 100	> 100	> 100	> 100
COC1=CC(=O)c2c(cc(COP(=O)(N(C)CCBr)N(C)CCBr)n2C)C1=O	4.85	3.51	7.54	12.9	0.971	4.35	0.492	1.95	14.7	2.33
COC(=O)c1c(C#C[Si](C)(C)C)c(C#C[Si](C)(C)C)c(C#C[Si](C)(C)C)c(C#C[Si](C)(C)C)c1C(=O)OC	> 100	> 100	> 100	> 100	> 100	> 100	> 100	> 100	> 100	> 100
COC(=O)C1=C(C)NC2(C)OC(C)(O)C(C(C)=O)C12C(C)=O (stereo not given)	> 100	> 100	89.2	> 100	> 100	> 100	> 100	> 100	> 100	> 100
COc1cc2c(cc1O)CC[C@@H]1C2CC[C@@]2(C)C1CC[C@@H]2O (stereo not given in full)	> 81	> 100	> 97.9	> 100	22.1	> 100	> 100	57.6	> 100	36.7
